In publication PMC4574608, “Genomic profiling of a Hepatocyte growth factor-dependent signature for MET-targeted therapy in glioblastoma” (Journal of Translational Medicine, 2015):
Entries after “also recorded” stand apart in the source; their conditions may differ.

Columns and labels:
U87MG cells = experiment: 3D cell invasion assay (spheroid dispersal on Matrigel); format: cell-based, human; details: at 50 μM, day 3
Description: U87MG cells were first grown in 1 % soft agar (Sigma) for 7 days to form spheroids. Each spheroid was then selected and placed onto Matrigel in a well to attach overnight (day 0), followed by treatment with DMSO or serially diluted compounds. Images were taken after an additional 3 days under a light microscope. Triplicates were tested for each concentration.

KCI-10-40X1 tumors = experiment: EGFRamp PDX therapeutic efficacy; format: in vivo, mouse
Description: (§1) All animal studies were approved by the IACUC of Van Andel Research Institute. Subcutaneous and orthotopic tumor initiation were performed as previously described. The orthotopic tumor growth was measured by bioluminescence signal intensity (BLI) using a small animal optical imager AMI 1000 (Spectral Instruments Imaging, LLC). Dosing with V-4084 and/or erlotinib was delivered once daily by oral gavage for 3 weeks. Vehicles used were 0.5 % MC 400 with 0.05 % Tween 80 (for V-4084) and with 0.5 % (w/v) methyl cellulose (for erlotinib). To determine the effectiveness of treatment, the average tumor size of each group from the last measurement was analyzed with Student’s t test (p < 0.05).
(§2) To induce acquired resistance, KCI-10-40X1cells were inoculated into nude mice subcutaneously followed by continuous erlotinib treatment (75–100 mg/kg). […] The same transplant procedure was serially repeated four times to establish the tumor model adaptive to erlotinib treatment (KCI-10-40X1/erl). […] A combination of V-4084 and erlotinib, however, retarded KCI-10-40X1/erl tumor growth (Fig. 5E).

G91 PDX model = experiment: GBM PDX therapeutic efficacy; format: in vivo, mouse; details: G91, no HGF expression, single agent
Description: as §1

G116 PDX model = experiment: GBM PDX therapeutic efficacy; format: in vivo, mouse; details: G116, highest HGF expression, single agent
Description: as §1

KCI-10-40X1/erl tumors = experiment: Erlotinib-resistant EGFRamp PDX therapeutic efficacy; format: in vivo, mouse; details: continued erlotinib treatment, discontinuing accelerated growth
Description: as §1, §2

SMILES | U87MG cell dispersal (anti-migratory activity) (U87MG cells) | Time of continuous treatment until tumors regrow (start of acquired resistance) (KCI-10-40X1 tumors; KCI-10-40X1, continuous erlotinib 75–100 mg/kg) | Tumor response to treatment (KCI-10-40X1 tumors; KCI-10-40X1 subcutaneous in nude mice, erlotinib 75 mg/kg, first week) | PDX tumor response to treatment (G91 PDX model) | PDX tumor response to treatment (G116 PDX model) | Tumor growth (KCI-10-40X1/erl tumors)
Cn1nnc2c(C(N)=O)ncn2c1=O [TMZ, Temozolomide] | failed to show any anti-migratory activity |  |  |  |  | 
C#Cc1cccc(Nc2ncnc3cc(OCCOC)c(OCCOC)cc23)c1 [erlotinib] |  | 5 weeks | high sensitivity; also recorded: significant tumor regression | exactly the opposite | no effect | grow while on erlotinib treatment
